Data on 31 compounds can be found in US11292802B2, “Substituted tetrahydropyrrolo[1,2-a]pyrazines as alpha v integrin inhibitors” (BRISTOL-MYERS SQUIBB COMPANY, priority 2017, dated 2022).

In the experiment the target is T1, human αVβ6 (Homo sapiens, UniProt P06756+P18564).
T1 construct: purchased R & D systems 3817-AV
T1 sequence (P06756 31-992 limits assumed): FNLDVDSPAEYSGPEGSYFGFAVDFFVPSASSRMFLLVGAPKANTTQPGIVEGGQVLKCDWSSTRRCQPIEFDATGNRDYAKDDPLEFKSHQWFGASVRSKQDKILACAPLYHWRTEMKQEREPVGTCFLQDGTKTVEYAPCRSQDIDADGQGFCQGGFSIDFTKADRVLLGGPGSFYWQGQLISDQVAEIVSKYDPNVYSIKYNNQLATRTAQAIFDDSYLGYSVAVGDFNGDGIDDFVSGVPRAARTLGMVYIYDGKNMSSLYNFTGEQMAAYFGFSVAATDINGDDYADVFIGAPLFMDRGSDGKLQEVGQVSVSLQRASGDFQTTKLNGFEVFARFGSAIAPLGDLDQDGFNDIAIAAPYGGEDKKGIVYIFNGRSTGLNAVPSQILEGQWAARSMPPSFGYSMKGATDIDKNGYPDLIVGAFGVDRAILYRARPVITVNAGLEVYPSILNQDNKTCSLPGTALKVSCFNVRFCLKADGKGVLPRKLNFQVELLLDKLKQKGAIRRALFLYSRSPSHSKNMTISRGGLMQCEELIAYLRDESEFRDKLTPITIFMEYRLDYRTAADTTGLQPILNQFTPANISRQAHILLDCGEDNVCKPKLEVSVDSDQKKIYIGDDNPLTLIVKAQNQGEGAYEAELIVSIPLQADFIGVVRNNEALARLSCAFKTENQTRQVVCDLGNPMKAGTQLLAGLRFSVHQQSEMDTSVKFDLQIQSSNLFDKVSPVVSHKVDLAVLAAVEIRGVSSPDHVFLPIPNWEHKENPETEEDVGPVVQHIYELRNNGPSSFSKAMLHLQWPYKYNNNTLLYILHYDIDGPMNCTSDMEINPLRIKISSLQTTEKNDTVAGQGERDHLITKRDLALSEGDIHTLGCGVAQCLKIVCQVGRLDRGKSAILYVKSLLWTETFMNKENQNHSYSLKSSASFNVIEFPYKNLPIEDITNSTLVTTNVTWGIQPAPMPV
T1 sequence (P18564 22-707 limits assumed): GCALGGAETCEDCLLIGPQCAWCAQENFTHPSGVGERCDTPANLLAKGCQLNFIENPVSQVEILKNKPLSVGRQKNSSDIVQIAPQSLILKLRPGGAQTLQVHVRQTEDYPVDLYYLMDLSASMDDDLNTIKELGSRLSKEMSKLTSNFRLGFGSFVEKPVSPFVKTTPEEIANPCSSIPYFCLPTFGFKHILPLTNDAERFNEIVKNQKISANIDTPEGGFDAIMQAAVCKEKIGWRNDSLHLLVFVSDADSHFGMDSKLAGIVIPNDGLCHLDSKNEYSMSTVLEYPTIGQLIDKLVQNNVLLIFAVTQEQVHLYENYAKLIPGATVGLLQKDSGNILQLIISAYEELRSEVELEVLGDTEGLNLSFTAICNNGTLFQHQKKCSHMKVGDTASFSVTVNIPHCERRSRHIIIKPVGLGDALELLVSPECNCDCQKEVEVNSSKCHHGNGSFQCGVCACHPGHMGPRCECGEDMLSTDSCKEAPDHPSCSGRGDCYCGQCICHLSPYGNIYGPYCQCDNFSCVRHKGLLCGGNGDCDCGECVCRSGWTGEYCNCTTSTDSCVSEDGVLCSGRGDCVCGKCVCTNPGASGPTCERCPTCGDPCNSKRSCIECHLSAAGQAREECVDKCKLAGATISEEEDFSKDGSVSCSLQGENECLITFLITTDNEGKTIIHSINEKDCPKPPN
The experiment can be described thus: human αVβ6 HTRF binding assay. The conditions noted are these: biotinylated recombinant human αVβ6 integrin 1.25 nM, FITC-conjugated fibronectin 5 nM. The method, then:
All binding assays used the HTRF (homogeneous time resolved fluorescence) technology from Cisbio International, therefore all assays are described as HTRF binding assays. The assay results for the Examples are listed in Table 1, exemplified by human αVβ6 (?). The HTRF binding assays are established for the following integrins: human αVβ6, human αVβ1, human αVβ3, human αVβ5, and human αVβ8. All assays used the following assay buffer: 20 mM Tris, pH 7.4, 1 mM MgCl2, 1 mM MnCl2, 0.01% Tween 20, and 0.01% BSA. Alternatively, a SPA-based assay was used for evaluation of receptor binding.
[…]
Background: In TR-FRET formats the signal depends on donor and acceptor labels being close together.
Regarding `COc1ccc([C@H](CC(=O)O)N2CCn3cc(CCC4CCc5cccnc5N4)cc3C2=O)cc1F` (mixture of isomers) [Example 2, (3S)-3-(3-Fluoro-4-methoxyphenyl)-3-(1-oxo-7-(2-(1,2,3,4-tetrahydro-1,8-naphthyridin-2-yl)ethyl)-3,4-dihydropyrrolo[1,2-a]pyrazin-2(1H)-yl)propanoic acid], the half-inhibitory concentration (IC50) was 0.51 nM.

For `COc1ccc([C@H](CC(=O)O)N2CCn3cc(CCC4CCc5cccnc5N4)cc3C2=O)cn1` (mixture of isomers) [Example 9], the half-maximal inhibitory concentration (IC50) turned out to be 0.6 nM.

For `COc1ccc([C@H](CC(=O)O)N2CCn3cc(CCC4CCc5cccnc5N4)cc3C2=O)cn1` (single isomer, unassigned) [Example 11], the IC50 turned out to be 2.3 nM.

Turning to `COc1ccc([C@H](CC(=O)O)N2CCn3cc(CCC4CCc5cccnc5N4)cc3C2=O)cn1` (single isomer, unassigned) [Example 12], the IC50 was determined as 3.2 nM.

For the compound `COc1ccc([C@H](CC(=O)O)N2CCn3cc(CCc4ccc5c(n4)NCCC5)cc3C2=O)cc1F` [Example 1, (S)-3-(3-Fluoro-4-methoxyphenyl)-3-(1-oxo-7-(2-(5,6,7,8-tetrahydro-1,8-naphthyridin-2-yl)ethyl)-3,4-dihydropyrrolo[1,2-a]pyrazin-2(1H)-yl)propanoic acid], the half-inhibitory concentration (IC50) was found to be 3.2 nM.

Consider `COc1ccc([C@H](CC(=O)O)N2CCn3cc(CCc4ccc5c(n4)NCCC5)cc3C2=O)cn1` [Example 3, (S)-3-(6-Methoxypyridin-3-yl)-3-(1-oxo-7-(2-(5,6,7,8-tetrahydro-1,8-naphthyridin-2-yl)ethyl)-3,4-dihydropyrrolo[1,2-a]pyrazin-2(1H)-yl)propanoic acid], for which the 50% inhibitory concentration (IC50) was 2.4 nM.

`COc1ccc([C@@H](CC(=O)O)N2CCn3cc(CCc4ccc5c(n4)NCCC5)cc3C2=O)cc1F` [Example 4]: the IC50 came out at 80 nM.

As for `CC(C)(C)c1cc(Br)cc([C@H](CC(=O)O)N2CCn3cc(CCc4ccc5c(n4)NCCC5)cc3C2=O)c1` [Example 5], the IC50 amounted to 0.59 nM.

Turning to `O=C(O)C[C@@H](c1cc(Cl)cc(Cl)c1)N1CCn2cc(CCc3ccc4c(n3)NCCC4)cc2C1=O` [Example 6], the 50% inhibitory concentration (IC50) turned out to be 0.98 nM.

With `COc1ccc([C@H](CC(=O)O)N2CCn3c(cc(CCc4ccc5c(n4)NCCC5)c3C)C2=O)cc1F` [Example 7], the IC50 worked out at 69 nM.

Take `Cc1cc(C)c(S(=O)(=O)N[C@@H](CN2CCn3cc(CCc4ccc5c(n4)NCCC5)cc3C2=O)C(=O)O)c(C)c1` [Example 8]: the IC50 was found to be 25 nM.

Consider `COc1ccc([C@H](CC(=O)O)N2CCn3cc(C(Cc4ccc5c(n4)NCCC5)Cc4ccc5c(n4)NCCC5)cc3C2=O)cc1F` [Example 10], for which the IC50 was 1.3 nM.

`Cc1ncc(C(CC(=O)O)N2CCn3cc(CCc4ccc5c(n4)NCCC5)cc3C2=O)cn1` (stereo not shown) [Example 13]: the IC50 worked out at 7.2 nM.

As for `O=C(O)CC(c1cncnc1)N1CCn2cc(CCc3ccc4c(n3)NCCC4)cc2C1=O` (stereo not shown) [Example 15], the IC50 was determined as 23 nM.

`O=C(O)C[C@@H](c1cnc2ccccc2c1)N1CCn2cc(CCc3ccc4c(n3)NCCC4)cc2C1=O` [Example 16]: the 50% inhibitory concentration (IC50) was 1.8 nM.

`O=C(O)C[C@@H](c1ccc2c(c1)OCC2)N1CCn2cc(CCc3ccc4c(n3)NCCC4)cc2C1=O` [Example 17]: the IC50 was found to be 2.6 nM.

Turning to `O=C(O)CC(c1cnc2ccccc2n1)N1CCn2cc(CCc3ccc4c(n3)NCCC4)cc2C1=O` (stereo not shown) [Example 18], the IC50 was 140 nM.

In the case of `O=C(O)C[C@@H](c1cnc2ccccc2c1)N1CCn2cc(CCCc3ccc4c(n3)NCCC4)cc2C1=O` [Example 19], the IC50 was found to be 6.5 nM.

As for `COc1ncc([C@H](CC(=O)O)N2CCn3cc(CCCc4ccc5c(n4)NCCC5)cc3C2=O)cn1` [Example 20], the half-inhibitory concentration (IC50) worked out at 3.4 nM.

Regarding `Cc1ncc([C@H](CC(=O)O)N2CCn3cc(CCCc4ccc5c(n4)NCCC5)cc3C2=O)cn1` [Example 21], the half-maximal inhibitory concentration (IC50) was 5.6 nM.

With `CC(C)COc1ccc([C@H](CC(=O)O)N2CCn3cc(CCc4ccc5c(n4)NCCC5)cc3C2=O)cn1` [Example 22, (S)-3-(6-Isobutoxypyridin-3-yl)-3-(1-oxo-7-(2-(5,6,7,8-tetrahydro-1,8-naphthyridin-2-yl)ethyl)-3,4-dihydropyrrolo[1,2-a]pyrazin-2(1H)-yl)propanoic acid], the IC50 was found to be 1.6 nM.

Take `CCOc1ccc([C@H](CC(=O)O)N2CCn3cc(CCc4ccc5c(n4)NCCC5)cc3C2=O)cn1` [Example 23, (S)-3-(6-Ethoxypyridin-3-yl)-3-(1-oxo-7-(2-(5,6,7,8-tetrahydro-1,8-naphthyridin-2-yl)ethyl)-3,4-dihydropyrrolo[1,2-a]pyrazin-2(1H)-yl)propanoic acid]: the IC50 came out at 1.6 nM.

As to `O=C(O)C[C@@H](c1ccc(OCC2CC2)nc1)N1CCn2cc(CCc3ccc4c(n3)NCCC4)cc2C1=O` [Example 24, (S)-3-(6-(Cyclopropylmethoxy)pyridin-3-yl)-3-(1-oxo-7-(2-(5,6,7,8-tetrahydro-1,8-naphthyridin-2-yl)ethyl)-3,4-dihydropyrrolo[1,2-a]pyrazin-2(1H)-yl)propanoic acid], the IC50 turned out to be 1.6 nM.

For `O=C(N[C@@H](CN1CCn2cc(CCc3ccc4c(n3)NCCC4)cc2C1=O)C(=O)O)OCc1ccccc1` [Example 25, (S)-2-(((Benzyloxy)carbonyl)amino)-3-(1-oxo-7-(2-(5,6,7,8-tetrahydro-1,8-naphthyridin-2-yl)ethyl)-3,4-dihydropyrrolo[1,2-a]pyrazin-2(1H)-yl)propanoic acid], the half-inhibitory concentration (IC50) worked out at 4.6 nM.

`COc1ccc([C@H](CC(=O)O)N2CCn3c(cc(CCc4ccc5c(n4)NCCC5)c3I)C2=O)cc1F` [Example 26, (S)-3-(3-Fluoro-4-methoxyphenyl)-3-(6-iodo-1-oxo-7-(2-(5,6,7,8-tetrahydro-1,8-naphthyridin-2-yl)ethyl)-3,4-dihydropyrrolo[1,2-a]pyrazin-2(1H)-yl)propanoic acid]: the 50% inhibitory concentration (IC50) came out at 53 nM.

Consider `O=C(O)C[C@@H](c1ccc(O)c(F)c1)N1CCn2cc(CCc3ccc4c(n3)NCCC4)cc2C1=O` [Example 27, (S)-3-(3-Fluoro-4-hydroxyphenyl)-3-(1-oxo-7-(2-(5,6,7,8-tetrahydro-1,8-naphthyridin-2-yl)ethyl)-3,4-dihydropyrrolo[1,2-a]pyrazin-2(1H)-yl)propanoic acid], for which the IC50 amounted to 4.8 nM.

Consider `COc1ccc([C@H](CC(=O)O)N2CCn3cc(-c4ccc5c(n4)NCCC5)cc3C2=O)cc1F` [Example 28, (S)-3-(3-Fluoro-4-methoxyphenyl)-3-(1-oxo-7-(5,6,7,8-tetrahydro-1,8-naphthyridin-2-yl)-3,4-dihydropyrrolo[1,2-a]pyrazin-2(1H)-yl)propanoic acid], for which the IC50 amounted to 340 nM.

Take `COc1ccc([C@H](CC(=O)O)N2CCn3cc(Cc4ccc5c(n4)NCCC5)cc3C2=O)cc1F` [Example 29, (S)-3-(3-Fluoro-4-methoxyphenyl)-3-(1-oxo-7-((5,6,7,8-tetrahydro-1,8-naphthyridin-2-yl)methyl)-3,4-dihydropyrrolo[1,2-a]pyrazin-2(1H)-yl)propanoic acid]: the IC50 was determined as 0.73 nM.

Consider `COc1ccc([C@H](CC(=O)O)N2CCn3cc(CCCc4ccc5c(n4)NCCC5)cc3C2=O)cn1` [Example 30, (S)-3-(6-Methoxypyridin-3-yl)-3-(1-oxo-7-(3-(5,6,7,8-tetrahydro-1,8-naphthyridin-2-yl)propyl)-3,4-dihydropyrrolo[1,2-a]pyrazin-2(1H)-yl)propanoic acid], for which the IC50 amounted to 1.1 nM.

Turning to `COc1ccc([C@H](CC(=O)O)N2CCn3cc(CCCCc4ccc5c(n4)NCCC5)cc3C2=O)cc1F` [Example 31, (S)-3-(3-Fluoro-4-methoxyphenyl)-3-(1-oxo-7-(4-(5,6,7,8-tetrahydro-1,8-naphthyridin-2-yl)butyl)-3,4-dihydropyrrolo[1,2-a]pyrazin-2(1H)-yl)propanoic acid], the concentration for half-maximal inhibition (IC50) stood at 12 nM.

Consider “(S)-3-(3-Fluoro-4-methoxyphenyl)-3-(1-oxo-7-(4-(5,6,7,8-tetrahydro-1,8-naphthyridin-2-yl)butyl)-3,4-dihydropyrrolo[1,2-a]pyrazin-2(1H)-yl)propanoic acid, TFA [Example 32]”, for which the IC50 came to 410 nM.

One may read the IC50 as the concentration that gives 50% inhibition.
